US10222370B2, “Screening assay for choice of prebiotic to prevent/treat gastrointestinal and systemic diseases” (Rush University Medical Center, priority 2014, dated 2019)
Entries after “also recorded” stand apart in the source; their conditions may differ.

What was measured:
Type in all cases: cell-based, human
[1] = tested on: T84 monolayers co-cultured with CD3/28-activated PBMC; assay: T84/PBMC co-culture, barrier integrity by transepithelial electrical resistance (TER); conditions: for TER of T84 monolayers: apical exposure, 24 h and 48 h, vs medium control; for PBMC-induced disruption of intestinal epithelial barrier integrity (injurious effects of activated PBMC): PBMC from food allergy patients, agonist on apical side of T84 cells, FIG. 3
Method: (§1) The T84 cells are grown in DMEM/F-12 (1:1) supplemented with GlutaMAX®, 10% fetal bovine serum and […] penicillin/streptomycin. (T84 cells (human colorectal carcinoma cell line, ATCC® CCL-248™, Manassas, Va., USA). T84 cells were seeded in 12-well transwell insert filters (Coming Inc., NY, USA) and cultured in T84 cell medium for 3-4 weeks till co-culture with PBMC. Transepithelial electrical resistance (TER) was measured during culture, which generally increases to >1500 Ω×cm^2 and becomes stable after 3-4 weeks of culture. When TER was ≥2000 Ω×cm^2, T84 monolayers 14 were co-cultured with 1.5×10^6 PBMC 16 in the basolateral chamber.
(§2) The PBMC 16 for use in the co-cultures are isolated from 20 mL fresh blood from healthy controls (n=6) and subjects with food allergy (n=8) (Table 1). The average age of healthy controls was 36 (range 24-54) vs. 51 (range 26-74) for food allergic subjects (P>0.05). PBMC were isolated by density gradient centrifugation using lymphocyte separation medium according to manufacturer's protocol (Cellgro, Mediatec, Inc., Manassas, Va., USA). PBMC were collected in RPMI1640 supplemented with L-glutamine (Gibco), 2.5% fetal bovine serum, 1% penicillin/streptomycin and 1% sodium pyruvate (Sigma, St. Louis, Mo., USA) (PBMC medium) at 1×10^6 cell/mL.
(§3) T84/PBMC co-cultures were maintained in PBMC medium. PBMC were stimulated using CD3 and CD28 antibodies (clone OKT3 and CD28.2, 0.2 μg/mL; eBioscience, San Diego, Calif., USA) and simultaneously IEC were stimulated apically with Pam3CSK4, LPS or type C CpG oligonucleotide M362 (Invivogen, San Diego, Calif., USA) as previously described. Cultures were maintained at 37° C./5% CO2 for indicated time points.
The barrier integrity of T84 monolayers was assessed by measuring the TER and paracellular permeability to 4 kDa FITC-dextran. In short, TER was measured using a dual electrode system designed for cell culture insert analysis (EVOM; World Precision Instruments, Sarasota, Fla.) prior to co-culture and at indicated time points during co-culture. Data is reported as percentage of the initial TER value measured before co-culture. For assessment of permeability, T84 monolayers were separated from PBMC and cultured in PBMC medium for 1 h. The monolayers were then apically exposed to 1 mg/mL 4 kDa FITC-dextran (Sigma) and basolateral supernatants were collected after 60 min. FITC-dextran was measured at excitation wavelength 485 nm and emission wavelength 520 nm. The 4 kDa FITC-dextran flux was expressed as pmol/(h×cm^2).
In some experiments, PBMC are stimulated using antibodies against CD3 and CD28 and T84 cell monolayers were simultaneously exposed to synthetic TLR ligands or fermentation product 12 (co-culture of stool samples without or with different prebiotics). SCFA content (acetate, propionate and butyrate) in the fermentation products (“Fermenta”) 12 was analyzed by HPLC. TER was measured at t=0 h, t=4 h, t=18 h and t=24 h to monitor changes in the barrier integrity of the T84 monolayers. Non-limiting example of prebiotics include commercially available inulin and fructose oligosaccharides (FOS) that promote production of Butyrate by intestinal bacteria, galactose oligosaccharides (GOS) that promote growth of bifidobacteria in the intestine or prebiotics like resistant starch, corn arbionoxylan that promotes propionate. Other prebiotics may also be used.

[2] = tested on: T84 monolayers co-cultured with CD3/28-activated PBMC; assay: T84/PBMC co-culture, paracellular permeability to 4 kDa FITC-dextran; conditions: PBMC from food allergic subjects; 48 h co-culture; vs medium control
Method: as §1, §2
T84/PBMC co-cultures were maintained in PBMC medium. […]
The barrier integrity of T84 monolayers was assessed by measuring the TER and paracellular permeability to 4 kDa FITC-dextran. In short, TER was measured using a dual electrode system designed for cell culture insert analysis (EVOM; World Precision Instruments, Sarasota, Fla.) prior to co-culture and at indicated time points during co-culture. Data is reported as percentage of the initial TER value measured before co-culture. […] FITC-dextran was measured at excitation wavelength 485 nm and emission wavelength 520 nm. The 4 kDa FITC-dextran flux was expressed as pmol/(h×cm^2).

[3] = tested on: PBMC; assay: Cytokine production by CD3/28-activated PBMC in absence of T84 cells (ELISA); conditions: for IFN-γ / IL-6 / IL-8 / IL-10 / IL-13 / TNF-α / IFN-γ/IL-13 ratio: PBMC in absence of T84 cells, 24 h; for IFN-γ / IL-6 / IL-8 / IL-10 / IL-13 / TNF-α: mean ± SEM; for IL-10/IL-13 ratio: absence of T84 cells
Method: as §2, §3
(§4) Cytokine levels were measured by ELISA. IL-6, IL-8, IL-10, IL-13, IFN-γ and TNF-α were measured using the Ready-Set-Go!® ELISA kit from eBioscience according to manufacturer's protocol (eBioscience, Inc., San Diego, Calif., USA).
(§5) To evaluate whether epithelial TLR ligation modulates cytokine production by the PBMC, basolateral supernatants were collected 24 h after co-culture. Exposure of CD3/28-activated PBMC in the absence of IEC to TLR ligands served as a control to evaluate the contribution of IEC in modulating the cytokine production by PBMC. First we evaluated the production of IFN-γ and IL-13 as a reflection of a Th1 and Th2 type effector response (Table 3). No significant changes in the production of IFN-γ or IL-13 were observed, though IFN-γ production by the PBMC from food allergic subjects tended to be lower in T84/PBMC co-cultures (P=0.093). […] This was not observed when PBMC were stimulated with CpG DNA in absence of T84 cells (FIG. 7B).

[4] = tested on: T84/PBMC co-cultures; assay: Cytokine production in T84/PBMC co-cultures with apical TLR ligands (ELISA); conditions: for IL-10/IL-13 ratio / IFN-γ/IL-13 ratio / IL-10/IFN-γ: T84/PBMC co-cultures; for IL-10/IL-13 ratio / IFN-γ/IL-13 ratio: vs medium; for IFN-γ/IL-13 ratio / IL-6 / IFN-γ / IL-8 / IL-10 / IL-13 / TNF-α: 24 h; for IL-10/IFN-γ: apical exposure; for IL-6 / IFN-γ / IL-8 / IL-10 / IL-13 / TNF-α: T84/PBMC, mean ± SEM
Method: as §1, §2, §3, §4, §5

[5] = PBMC from food allergic subjects

“type C CpG oligonucleotide M362 [CpG DNA]” was tested, and the “TER of T84 monolayers” value [1, 5] was “prevented PBMC-induced barrier disruption; also recorded: increased”, the “PBMC-induced disruption of intestinal epithelial barrier integrity (injurious effects of activated PBMC)” value ([1]; listed as TLR9 agonist) was “prevented” and the “PBMC-induced disruption of intestinal epithelial barrier integrity (injurious effects of activated PBMC)” value ([1]; listed as TLR-9 agonist) was “significantly blunted”. The “TER of T84 monolayers” value ([1]; PBMC from healthy controls) was “prevented PBMC-induced barrier disruption; also recorded: increased”, the “permeability of T84 monolayers to 4 kDa FITC-dextran” value [2] was “reduced epithelial permeability” and the IFN-γ ([3]; FA) was 3945 ± 1543 pg/mL. The IL-6 ([3]; FA) was 5940 ± 2450 pg/mL, the IL-8 ([3]; FA) was 25420 ± 6779 pg/mL and the IL-10 ([3]; FA) was 477.3 ± 157.7 pg/mL. It also gave an IL-13 ([3]; FA) of 39.9 ± 12.8 pg/mL, a TNF-α ([3]; FA) of 1199 ± 437 pg/mL and an IFN-γ ([3]; HC) of 2394 ± 966 pg/mL. For the same substance, the IL-6 ([3]; HC) was 2564 ± 824 pg/mL, the IL-8 ([3]; HC) was 19912 ± 2430 pg/mL and the IL-10 ([3]; HC) was 391.9 ± 149.3 pg/mL. For the same substance, the IL-13 ([3]; HC) was 19.5 ± 3.8 pg/mL, the TNF-α ([3]; HC) was 1024 ± 213 pg/mL and the IFN-γ/IL-13 ratio ([3]; food allergic subjects) was “not observed”. The IFN-γ/IL-13 ratio ([3]; healthy controls) was “not observed”, the IL-10/IL-13 ratio [3, 5] was “did not affect” and the IL-10/IL-13 ratio ([3]; PBMC from healthy controls) was “enhanced”. The “production of IL-6, IL8 and TNF-α” value ([3]; direct stimulation of PBMC from food allergic subjects, in words) was “did not suppress”, the pro-inflammatory cytokine production ([3]; direct stimulation of PBMC from healthy controls, in words) was “reduced” and the “production of IL-6, IL-8 and TNF-α by PBMC” value ([4]; T84/PBMC co-culture, PBMC from both healthy controls and food allergic subjects, in words) was “suppressed”. The IL-10/IL-13 ratio ([4]; PBMC from food allergic patients) was “significantly increased”, the IFN-γ/IL-13 ratio ([4]; food allergic subjects) was “enhanced; also recorded: increased” and the IL-10/IFN-γ ([4]; food allergic subjects) was 0.19±0.06. For the same substance, the IFN-γ/IL-13 ratio ([4]; healthy controls) was “enhanced; also recorded: increased”, the IL-10/IFN-γ ([4]; healthy controls) was 0.12±0.06 and the IL-10/IL-13 ratio ([4]; healthy donor PBMC) was “tended to increase”. The IL-6 ([4]; FA (food allergy) PBMC) was 6400 ± 1671 pg/mL, the IFN-γ ([4]; FA PBMC) was 7040 ± 2454 pg/mL and the IL-8 ([4]; FA PBMC) was 15733 ± 4509 pg/mL. For the same substance, the IL-10 ([4]; FA PBMC) was 834 ± 233.6 pg/mL, the IL-13 ([4]; FA PBMC) was 35.9 ± 10.5 pg/mL and the TNF-α ([4]; FA PBMC) was 2092 ± 493 pg/mL. For the same substance, the IL-6 ([4]; HC (healthy control) PBMC) was 7291 ± 1376 pg/mL, the IFN-γ ([4]; HC PBMC) was 10731 ± 3289 pg/mL and the IL-8 ([4]; HC PBMC) was 20758 ± 5247 pg/mL. For the same substance, the IL-10 ([4]; HC PBMC) was 652.8 ± 105.5 pg/mL, the IL-13 ([4]; HC PBMC) was 27.5 ± 7.5 pg/mL and the TNF-α ([4]; HC PBMC) was 2531 ± 552 pg/mL. The “Th1/Th2 balance of the effector immune response” value ([4]; apical exposure of T84 monolayers, FIG. 4, listed as TLR9 agonist) was “shifts the balance of the effector immune response away from the allergy-associated Th2 response; also recorded: reversed the Th1/Th2 balance away from the allergic TH2 phenotype”.
